Tested on: GloResponse NFAT-luc2 Jurkat cells
Details: T2 loaded with 100 nM peptide, 18 hours
Procedure: T cell activation assays using GloResponse™ NFAT-luc2 Jurkat cells and peptide loaded T2 target cells were performed according to manufacturer instructions. In short, T2 cells were harvested from continuous cell culture, washed and resuspended in T2 culture medium at a concentration of 3.3×10^6 cells/ml and transferred to 96 well round bottom plates (Corning Costar®, Cat. Nr. 3799). Peptide in DMSO, 0.5% TFA was added to a final concentration of 100 nM and the suspension incubated for 2 to 3 hours at 37° C., 5% CO2. bsTCR formulated in PBS was diluted in T2 culture medium to desired concentration and 25 μl of the respective dilution was distributed to white 96 well flat bottom plates (Brand, Cat. Nr. 781965). […] After the incubation period 75 μl of Bio-Glo™ luciferase reagent was added to each well and the plates incubated for minutes at 300 rpm on a plate shaker in the dark before reading luminescence at a 0.5 second integration time with a Synergy2 plate reader (Biotek). Luminescence as measured in relative light units (RLU) was converted to fold induction for each well by dividing measured RLU through those of control wells.
T2 cells were loaded separately with respective peptides from the positional scanning library at a concentration of 100 nM and subsequently co-incubated with Jurkats and different bsTCR concentrations for 18 hours before readout.

ALYNVLAKV
T cell activation (luminescence fold induction over background): reactive in the reporter assay

From patent publication US12188932B2, “Method for high throughput peptide-MHC affinity screening for TCR ligands” (priority 2018, dated 2025)
